Experimental data as given in patent publication US10174067B2, “Type of cytidine derivative and application thereof” (priority 2014, dated 2019).
Marks after values point to notes of the source that are not given here.

Tests used:
[1] = Procedure, shortened: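 Female SPF Balb/c nude mice bearing subcutaneous HCT-116 xenografts (3×10^6 cells, right hind limb), grouped at 60–150 mm^3, 6 per group; vehicle ethanol/Cremophor EL/saline 5:5:90. Body weight thrice weekly; tumours excised and weighed at sacrifice; Mean±SEM, unpaired t-test, P<0.05.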
[2] = test system: HCT-116 colon cancer xenografts; assay: Tumor growth inhibition of HCT-116 colon cancer xenografts in tumor-bearing nude mice (tumor volume, TGI %, RTV, T/C %); type: in vivo, Balb/c Nude mice; settings: G10-G16 groups, single IP 400 mg/kg
Procedure, shortened: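 Nude mice inoculated with HCT-116 cells (about 3×10^7 cells/mL in serum-free medium). Tumor diameter measured three times weekly and volume computed as V=3/4π(D/2)^3. Activity expressed as TGI (%) and T/C (%) from relative tumor volume Vt/V0, with V0 taken at grouping and dosing start; P<0.05 significant.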

ICR mice = assay: in vivo; settings: female ICR mice; single-dose ip
Procedure, shortened: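 Female SPF ICR mice received a single ip dose in ethanol/Cremophor EL/saline (5:5:90), with dose lowered after deaths and raised otherwise. MTD defined as dose causing no death, no >10% weight loss versus Day 0 and no significant side effects; daily weights and twice-daily clinical observation over 7-14 days.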

[3] = Day 1, G10-G16 groups, single IP 400 mg/kg, Mean±SEM
[4] = Day 2, G10-G16 groups, single IP 400 mg/kg, Mean±SEM
[5] = Day 4, G10-G16 groups, single IP 400 mg/kg, Mean±SEM
[6] = Day 7, G10-G16 groups, single IP 400 mg/kg, Mean±SEM
[7] = Day 9, G10-G16 groups, single IP 400 mg/kg, Mean±SEM
[8] = Day 11, G10-G16 groups, single IP 400 mg/kg, Mean±SEM
[9] = Day 14, G10-G16 groups, single IP 400 mg/kg, Mean±SEM
[10] = Day 16, G10-G16 groups, single IP 400 mg/kg, Mean±SEM
[11] = Day 18, G10-G16 groups, single IP 400 mg/kg, Mean±SEM
[12] = Day 21, G10-G16 groups, single IP 400 mg/kg, Mean±SEM
[13] = Day 23, G10-G16 groups, single IP 400 mg/kg, Mean±SEM
[14] = Day 25, G10-G16 groups, single IP 400 mg/kg, Mean±SEM
[15] = Day 28, G10-G16 groups, single IP 400 mg/kg, Mean±SEM
[16] = Day 30, G10-G16 groups, single IP 400 mg/kg, Mean±SEM

Question: For CCCCOC(=O)Nc1nc(=O)n(C2OC(COC(=O)COc3nc(Cl)c(Cl)cc3Cl)C(O)C2(F)F)cc1Br (stereo not shown) [Compound G16], which “Weight change rate, Day 0” value ([1]; Day 0, G10-G16 groups, single IP 400 mg/kg) is on record?
Answer: Its value is 0.00%.

Question: And the “Weight of mice, Day 0” value ([1]; Day 0, G10-G16 groups, single IP 400 mg/kg, Mean±SEM)?
Answer: Its value is 20.60 ± 0.23 g.

Question: What about the “Weight change rate, Day 1” value [1, 3] of the same molecule?
Answer: Its value is −0.99 ± 0.59%.

Question: And the “Weight of mice, Day 1” value [1, 3]?
Answer: Its value is 20.40 ± 0.32 g.

Question: And the “Weight change rate, Day 2” value [1, 4]?
Answer: The value was −0.79 ± 0.84%.

Question: What about the “Weight of mice, Day 2” value [1, 4] of the same molecule?
Answer: The value was 20.45 ± 0.30 g.

Question: What about the “Weight change rate, Day 4” value [1, 5] of the same molecule?
Answer: Its value is −0.38 ± 1.13%.

Question: And the “Weight of mice, Day 4” value [1, 5]?
Answer: The value was 20.62 ± 0.28 g.

Question: What about the “Weight change rate, Day 7” value [1, 6] of the same molecule?
Answer: The value was −1.73 ± 0.99 %.

Question: What about the “Weight of mice, Day 7” value [1, 6] of the same molecule?
Answer: The value was 20.43 ± 0.27 g.

Question: What about the “Weight change rate, Day 9” value [1, 7] of the same molecule?
Answer: The value was 1.99 ± 1.71 %.

Question: And the “Weight of mice, Day 9” value [1, 7]?
Answer: The value was 21.03 ± 0.23 g.

Question: What about the “Weight change rate, Day 11” value [1, 8] of the same molecule?
Answer: Its value is 3.60 ± 1.31%.

Question: And the “Weight of mice, Day 11” value [1, 8]?
Answer: Its value is 21.32 ± 0.26 g.

Question: What about the “Weight change rate, Day 14” value [1, 9] of the same molecule?
Answer: Its value is 1.54 ± 2.06 %.

Question: What about the “Weight of mice, Day 14” value [1, 9] of the same molecule?
Answer: The value was 20.87 ± 0.22 g.

Question: What about the “Weight change rate, Day 16” value [1, 10] of the same molecule?
Answer: Its value is 2.61 ± 2.41%.

Question: And the “Weight of mice, Day 16” value [1, 10]?
Answer: Its value is 21.02 ± 0.33 g.

Question: And the “Weight change rate, Day 18” value [1, 11]?
Answer: The value was 6.99 ± 2.87 %.

Question: And the “Weight of mice, Day 18” value [1, 11]?
Answer: The value was 21.80 ± 0.44 g.

Question: What about the “Weight change rate, Day 21” value [1, 12] of the same molecule?
Answer: Its value is 5.42 ± 2.41 %.

Question: What about the “Weight of mice, Day 21” value [1, 12] of the same molecule?
Answer: The value was 21.55 ± 0.34 g.

Question: What about the “Day 22 Mortality” value ([1]; Day 22, single IP dose (mg/kg)) of the same molecule?
Answer: The value was 0%.

Question: And the “Weight change rate, Day 23” value [1, 13]?
Answer: The value was 7.14 ± 3.88%.

Question: What about the “Weight of mice, Day 23” value [1, 13] of the same molecule?
Answer: Its value is 21.78 ± 0.58 g.

Question: And the “Weight change rate, Day 25” value [1, 14]?
Answer: Its value is 7.62 ± 3.76%.

Question: What about the “Weight of mice, Day 25” value [1, 14] of the same molecule?
Answer: The value was 21.83 ± 0.59 g.

Question: What about the “Weight change rate, Day 28” value [1, 15] of the same molecule?
Answer: Its value is 3.66 ± 3.27%.

Question: And the “Weight of mice, Day 28” value [1, 15]?
Answer: Its value is 21.27 ± 0.43 g.

Question: And the “Weight change rate, Day 30” value [1, 16]?
Answer: Its value is 4.94 ± 2.45%.

Question: And the “Weight of mice, Day 30” value [1, 16]?
Answer: The value was 21.20 ± 0.60 g.

Question: And the clinical symptoms ([1]; after single IP dose, compared with model control group)?
Answer: The clinical symptoms was “no significant differences in clinical symptoms”.

Question: And the “Day 0 (RTV)” value ([2]; Day 0)?
Answer: Its value is 1.00.

Question: And the “Tumor volume, Day 0” value ([2]; Day 0, Mean±SEM)?
Answer: Its value is 52.57 ± 10.93** mm^3.

Question: What about the “Day 1 (TGI %)” value ([2]; Day 1) of the same molecule?
Answer: The value was 63.52%.

Question: What about the “Day 1 (RTV)” value ([2]; Day 1, Mean±SEM) of the same molecule?
Answer: Its value is 1.25 ± 0.20.

Question: What about the “Tumor volume, Day 1” value ([2]; Day 1, Mean±SEM) of the same molecule?
Answer: The value was 65.85 ± 18.30** mm^3.

Question: What about the “Day 2 (TGI %)” value ([2]; Day 2) of the same molecule?
Answer: Its value is 56.02%.

Question: What about the “Day 2 (RTV)” value ([2]; Day 2, Mean±SEM) of the same molecule?
Answer: The value was 2.10 ± 0.74.

Question: And the “Tumor volume, Day 2” value ([2]; Day 2, Mean±SEM)?
Answer: The value was 97.57 ± 24.94** mm^3.

Question: What about the “Day 4 (TGI %)” value ([2]; Day 4) of the same molecule?
Answer: The value was 52.31%.

Question: What about the “Day 4 (RTV)” value ([2]; Day 4, Mean±SEM) of the same molecule?
Answer: Its value is 3.10 ± 1.46.

Question: What about the “Day 7 (TGI %)” value ([2]; Day 7) of the same molecule?
Answer: The value was 45.07%.

Question: What about the “Day 7 (RTV)” value ([2]; Day 7, Mean±SEM) of the same molecule?
Answer: Its value is 5.12 ± 2.41.

Question: What about the “Tumor volume, Day 7” value ([2]; Day 7, Mean±SEM) of the same molecule?
Answer: The value was 237.57 ± 74.65* mm^3.

Question: What about the “Day 9 (TGI %)” value ([2]; Day 9) of the same molecule?
Answer: Its value is 33.79%.

Question: And the “Day 9 (RTV)” value ([2]; Day 9, Mean±SEM)?
Answer: The value was 8.09 ± 3.62.

Question: And the “Tumor volume, Day 9” value ([2]; Day 9, Mean±SEM)?
Answer: The value was 390.87 ± 115.68 mm^3.

Question: And the “Day 11 (TGI %)” value ([2]; Day 11)?
Answer: The value was 36.38%.

Question: And the “Day 11 (RTV)” value ([2]; Day 11, Mean±SEM)?
Answer: The value was 12.66 ± 5.21.

Question: What about the “Tumor volume, Day 11” value ([2]; Day 11, Mean±SEM) of the same molecule?
Answer: Its value is 621.03 ± 173.32 mm^3.

Question: And the “Day 14 (TGI %)” value ([2]; Day 14)?
Answer: Its value is 27.91%.

Question: And the “Day 14 (RTV)” value ([2]; Day 14, Mean±SEM)?
Answer: The value was 20.81 ± 7.22.

Question: What about the “Tumor volume, Day 14” value ([2]; Day 14, Mean±SEM) of the same molecule?
Answer: Its value is 1038.23 ± 262.72 mm^3.

Question: What about the “Day 16 (TGI %)” value ([2]; Day 16) of the same molecule?
Answer: Its value is 27.25%.

Question: And the “Day 16 (RTV)” value ([2]; Day 16, Mean±SEM)?
Answer: The value was 26.35 ± 8.64.

Question: And the “Tumor volume, Day 16” value ([2]; Day 16, Mean±SEM)?
Answer: The value was 1317.52 ± 322.74 mm^3.

Question: What about the “Day 18 (TGI %)” value ([2]; Day 18) of the same molecule?
Answer: The value was 21.59%.

Question: And the “Day 18 (RTV)” value ([2]; Day 18, Mean±SEM)?
Answer: Its value is 31.97 ± 10.14.

Question: And the “Tumor volume, Day 18” value ([2]; Day 18, Mean±SEM)?
Answer: Its value is 1566.87 ± 378.64 mm^3.

Question: What about the “Day 21 (TGI %)” value ([2]; Day 21) of the same molecule?
Answer: Its value is 23.19%.

Question: And the “Day 21 (RTV)” value ([2]; Day 21, Mean±SEM)?
Answer: The value was 38.61 ± 9.84.

Question: What about the “Tumor volume, Day 21” value ([2]; Day 21, Mean±SEM) of the same molecule?
Answer: Its value is 1877.91 ± 388.81 mm^3.

Question: And the “Day 23 (TGI %)” value ([2]; Day 23)?
Answer: Its value is 18.55%.

Question: And the “Day 23 (RTV)” value ([2]; Day 23, Mean±SEM)?
Answer: Its value is 39.81 ± 9.58.

Question: What about the “Tumor volume, Day 23” value ([2]; Day 23, Mean±SEM) of the same molecule?
Answer: Its value is 1923.55 ± 392.05 mm^3.

Question: And the “Day 25 (TGI %)” value ([2]; Day 25)?
Answer: The value was 18.29%.

Question: And the “Day 25 (RTV)” value ([2]; Day 25, Mean±SEM)?
Answer: The value was 43.89 ± 10.29.

Question: And the “Tumor volume, Day 25” value ([2]; Day 25, Mean±SEM)?
Answer: Its value is 2110.15 ± 421.51 mm^3.

Question: And the “Day 28 (TGI %)” value ([2]; Day 28)?
Answer: The value was 38.94%.

Question: What about the “Day 28 (RTV)” value ([2]; Day 28, Mean±SEM) of the same molecule?
Answer: The value was 39.62 ± 10.42.

Question: What about the “Tumor volume, Day 28” value ([2]; Day 28, Mean±SEM) of the same molecule?
Answer: The value was 1642.01 ± 659.32 mm^3.

Question: And the “Day 30 (TGI %)” value ([2]; Day 30)?
Answer: Its value is 52.84%.

Question: What about the “Day 30 (RTV)” value ([2]; Day 30, Mean±SEM) of the same molecule?
Answer: Its value is 38.70 ± 10.60.

Question: What about the “Tumor volume, Day 30” value ([2]; Day 30, Mean±SEM) of the same molecule?
Answer: The value was 1323.36 ± 626.45 mm^3.

Question: And the “dose that could be tolerated (maximum tolerated dose, MTD)” value (ICR mice)?
Answer: The value was 400 mg/kg.
